Literature values as cited in US4356265A, “Method for the production of antibiotic C-15003 P-3” (priority 1979, dated 1982).
Converted amounts (≈) assume the structure as drawn. Like-named read-outs stand apart in the source and are kept apart here.

Key:
Escherichia coli = settings: 0.02 ml of 300-μg/ml solution per disc, Trypticase Soy Agar
Proteus vulgaris = settings: 0.02 ml of 300-μg/ml solution per disc, Trypticase Soy Agar
Proteus mirabilis = settings: 0.02 ml of 300-μg/ml solution per disc, Trypticase Soy Agar
Pseudomonas aeruginosa = settings: 0.02 ml of 300-μg/ml solution per disc, Trypticase Soy Agar
Staphylococcus aureus = settings: 0.02 ml of 300-μg/ml solution per disc, Trypticase Soy Agar
Bacillus subtilis = settings: 0.02 ml of 300-μg/ml solution per disc, Trypticase Soy Agar
Bacillus cereus = settings: 0.02 ml of 300-μg/ml solution per disc, Trypticase Soy Agar
Klebsiella pneumoniae = settings: 0.02 ml of 300-μg/ml solution per disc, Trypticase Soy Agar
Serratia, marcescens = settings: 0.02 ml of 300-μg/ml solution per disc, Trypticase Soy Agar
Mycobacterium avium = settings: 0.02 ml of 300-μg/ml solution per disc, Trypticase Soy Agar
Talaromyces avellaneus = settings: agar plate, pH 7.0
Tetrahymena pyriformis W = settings: pH 7.0, 28° C., 44 to 48 hours
P388 leukemia cells = settings: 0.00625 mg/kg/day, intraperitoneally, 9 consecutive days; 1×10^6 cells/animal i.p.
mice = settings: intraperitoneal injection
Alternaria kikuchiana = settings: IFO 7515, PSA, 48 h; 0.02 ml of 1000 μg/ml
Fusicladium levieri = settings: IFO 6477, PSA, 90 h; 0.02 ml of 1000 μg/ml
[1] = test system: Helminthosporium sigmoideum var. irregulare; settings: IFO 5273, PSA, 48 h; 0.02 ml of 1000 μg/ml
Pyricularia oryzae = settings: PSA, 48 h; 0.02 ml of 1000 μg/ml
Elsinoe fawcetti = settings: IFO 8417, PSA, 90 h; 0.02 ml of 1000 μg/ml
[2] = test system: Fusarium oxysporum f. cucumerinum; settings: PSA, 48 h; 0.02 ml of 1000 μg/ml
Guignardia laricina = settings: IFO 7888, PSA, 48 h; 0.02 ml of 1000 μg/ml
Cochlioborus miyabeanus = settings: IFO 5277, PSA, 48 h; 0.02 ml of 1000 μg/ml
Diaporthe citri = settings: IFO 9170, PSA, 48 h; 0.02 ml of 1000 μg/ml
Gibberella zeae = settings: IFO 8850, PSA, 48 h; 0.02 ml of 1000 μg/ml
Sclerotinia sclerotiorum = settings: IFO 9395, PSA, 90 h; 0.02 ml of 1000 μg/ml
Venturia pirina = settings: IFO 6189, PAA, 48 h; 0.02 ml of 1000 μg/ml
Pellicularia sasakii = settings: IFO 9253, PSA, 48 h; 0.02 ml of 1000 μg/ml
Pythium aphanidermatam = settings: IFO 7030, PSA, 48 h; 0.02 ml of 1000 μg/ml
Botrytis cinerea = settings: PSA, 48 h; 0.02 ml of 1000 μg/ml
Aspergillus niger = settings: IFO 4066, PSA, 48 h; 0.02 ml of 1000 μg/ml
Penicillium chrysogenum = settings: IFO 4626, PSA, 48 h; 0.02 ml of 1000 μg/ml
Rhizopus nigricans = settings: IFO 6188, PSA, 48 h; 0.02 ml of 1000 μg/ml
Saccharomyces cerevisiae = settings: IFO 0209, PSA, 48 h; 0.02 ml of 1000 μg/ml
Rhodotorula rubra = settings: IFO 0907, PSA, 48 h; 0.02 ml of 1000 μg/ml
Trichophyton rubrum = settings: IFO 5467, GB, 48 h; 0.02 ml of 1000 μg/ml
[3] = test system: Trichophyton mentagrophytes; settings: IFO 7522, GB, 48 h; 0.02 ml of 1000 μg/ml
Candida albicans = settings: IFO 0583, GB, 48 h; 0.02 ml of 1000 μg/ml
Candida utilis = settings: IFO 0619, GB, 48 h; 0.02 ml of 1000 μg/ml
Cryptococcus neoformans = settings: IFO 0410, GB, 48 h; 0.02 ml of 1000 μg/ml

For COc1cc2cc(c1Cl)N(C)C(=O)CC(OC(=O)C(C)C)C1(C)OC1C(C)C1CC(O)(NC(=O)O1)C(OC)C=CC=C(C)C2 (stereo not shown) [Antibiotic C-15003 P-3], the antibacterial activity (Escherichia coli) is given as “no activity”, the antibacterial activity (Proteus vulgaris) is given as “no activity” and the antibacterial activity (Proteus mirabilis) is given as “no activity”. The antibacterial activity (Pseudomonas aeruginosa) was “no activity”, the antibacterial activity (Staphylococcus aureus) was “no activity” and the antibacterial activity (Bacillus subtilis) was “no activity”. The antibacterial activity (Bacillus cereus) was “no activity”, the antibacterial activity (Klebsiella pneumoniae) was “no activity” and the antibacterial activity (Serratia, marcescens) was “no activity”. For the same compound, the antibacterial activity (Mycobacterium avium) was “no activity”, the minimal inhibitory concentration (Talaromyces avellaneus) was 3 µg/mL (≈ 4.72 µM) and the “growth inhibition (concentration at which it occurs)” value (Tetrahymena pyriformis W) was 1 µg/mL. The life-span-extending ratio (P388 leukemia cells) was 200%, the LD0 (mice) was 0.313 mg/kg and the LD100 (mice) was 0.625 mg/kg. For the same compound, the Solubility (in benzene, ether) was “Sparingly soluble”, the Solubility (in chloroform, ethyl acetate, acetone, ethanol, methanol, pyridine, tetrahydrofuran, dimethylsulfoxide) was “Soluble” and the Solubility (in petroleum ether, n-hexane, water) was “Insoluble”. The Inhibition diameter (Alternaria kikuchiana) was 38 mm, the Inhibition diameter (Fusicladium levieri) was 68 mm and the Inhibition diameter [1] was 55 mm. For the same compound, the Inhibition diameter (Pyricularia oryzae) was 53 mm, the Inhibition diameter (Elsinoe fawcetti) was 55 mm and the Inhibition diameter [2] was 20 mm. For the same compound, the Inhibition diameter (Guignardia laricina) was 12 mm, the Inhibition diameter (Cochlioborus miyabeanus) was 60 mm and the Inhibition diameter (Diaporthe citri) was 55 mm. For the same compound, the Inhibition diameter (Gibberella zeae) was 37 mm, the Inhibition diameter (Sclerotinia sclerotiorum) was 65 mm and the Inhibition diameter (Venturia pirina) was 50 mm. The Inhibition diameter (Pellicularia sasakii) was 50 mm, the Inhibition diameter (Pythium aphanidermatam) was 58 mm and the Inhibition diameter (Botrytis cinerea) was 48 mm. For the same compound, the Inhibition diameter (Aspergillus niger) was 0 mm, the Inhibition diameter (Penicillium chrysogenum) was 35 mm and the Inhibition diameter (Rhizopus nigricans) was 25 mm. For the same compound, the Inhibition diameter (Saccharomyces cerevisiae) was 0 mm, the Inhibition diameter (Rhodotorula rubra) was 28 mm and the Inhibition diameter (Trichophyton rubrum) was 38 mm. The Inhibition diameter [3] was 38 mm, the Inhibition diameter (Candida albicans) was 0 mm and the Inhibition diameter (Candida utilis) was 0 mm. For the same compound, the Inhibition diameter (Cryptococcus neoformans) was 43 mm.
